Measured values as given in US12421489B2, “Biological control of plant pathogenic microorganisms” (priority 2016, dated 2025).

How the values were obtained:
Penicillium spp. = assay: Assay 8: wound protection of ‘Hongyang’ kiwifruit, Penicillium spp.; format: in vivo; details: wounded ‘Hongyang’ kiwifruit, treatment 24 h before Penicillium, 6 days incubation
Description: (§1) The kiwifruit ‘Hongyang’-based screening assays (assays 8 and 9) were conducted in laboratories at the Plant and Food Research Ruakura Research Centre, Hamilton, New Zealand (PFR). PFR assays focused on wound application of YBCA5 treatment, a commercial biological control treatment and a fungicide were used as comparative controls.
The ‘Hongyang’ kiwifruit were sourced from the PFR Riwaka Research Orchard in Motueka on 12 Apr. 2017 for fruit based assays 8 and 9. Penicillium spp. Phomopsis spp., Alternaria spp., Colletotrichum spp., Cryptosporiopsis spp. and Botrytis spp. inoculation assays were carried out on ‘Hongyang’ kiwifruit that were picked at the harvest mature stage. […]
(§2) For assays 8 and 9, two sterile paper towels were placed beneath Plix cut-outs, moistened with 40 mL SDW and each fruit placed in disposable lunch boxes (Plix Extra Deep 45/45, containing five Plix fruit cut-outs to prevent fruit from moving), sealed, then placed into large (40 L) plastic bins which were closed to ensure high relative humidity for the first 24 h and incubated on the lab bench at 24° C. […] After 6 days, (Alternaria spp. Botrytis spp., Penicillium spp., Phomopsis spp., Colletotrichum spp.) and 7 days (Cryptosporiopsis spp.), the severity of fungal rot was assessed for each treatment by measuring the lesion length (mm) along the axis of the fruit. […]

[1] = tested on: postharvest kiwifruit fruit pathogens; assay: Assays 8 and 9 overall: wound protection of ‘Hongyang’ kiwifruit (discussion); format: in vivo; details: wounded ‘Hongyang’ kiwifruit, treatment 24 hours before pathogen
Description: as §1
Just prior to wound treatment, each fruit was wounded on the side with a sterile stainless steel spike (4 mm deep×3 mm wide) and 10 μl of each treatment suspension was pipetted into the wound and allowed to dry.
as §2, with “fruit. Data were expressed as the average lesion length, minus the initial width of the wound (3 mm).” for “fruit.”

CC(C)NC(=O)N1CC(=O)N(c2cc(Cl)cc(Cl)c2)C1=O [iprodione]
lesion size, comparison between treatments (Penicillium spp.): significantly smaller than the untreated control
overall performance as wound protectant [1]: performed poorly
